Test results taken from ChEMBL document CHEMBL4706575, “Nonpeptidic quinazolinone derivatives as dual nucleotide-binding oligomerization domain-like receptor 1/2 antagonists for adjuvant cancer chemotherapy” (Eur J Med Chem, 2020).

Experiments:
[1] = molecular target: T1, Nucleotide-binding oligomerization domain-containing protein 1 (Homo sapiens, UniProt Q9Y239); experiment: Antagonist activity at recombinant human NOD1 expressed in HEK293 cells assessed as inhibition of C12-iE-DAP-induced IL8 release measured after 24 hrs by HTRF assay; format: cell-based
T1 sequence (Q9Y239 whole entry): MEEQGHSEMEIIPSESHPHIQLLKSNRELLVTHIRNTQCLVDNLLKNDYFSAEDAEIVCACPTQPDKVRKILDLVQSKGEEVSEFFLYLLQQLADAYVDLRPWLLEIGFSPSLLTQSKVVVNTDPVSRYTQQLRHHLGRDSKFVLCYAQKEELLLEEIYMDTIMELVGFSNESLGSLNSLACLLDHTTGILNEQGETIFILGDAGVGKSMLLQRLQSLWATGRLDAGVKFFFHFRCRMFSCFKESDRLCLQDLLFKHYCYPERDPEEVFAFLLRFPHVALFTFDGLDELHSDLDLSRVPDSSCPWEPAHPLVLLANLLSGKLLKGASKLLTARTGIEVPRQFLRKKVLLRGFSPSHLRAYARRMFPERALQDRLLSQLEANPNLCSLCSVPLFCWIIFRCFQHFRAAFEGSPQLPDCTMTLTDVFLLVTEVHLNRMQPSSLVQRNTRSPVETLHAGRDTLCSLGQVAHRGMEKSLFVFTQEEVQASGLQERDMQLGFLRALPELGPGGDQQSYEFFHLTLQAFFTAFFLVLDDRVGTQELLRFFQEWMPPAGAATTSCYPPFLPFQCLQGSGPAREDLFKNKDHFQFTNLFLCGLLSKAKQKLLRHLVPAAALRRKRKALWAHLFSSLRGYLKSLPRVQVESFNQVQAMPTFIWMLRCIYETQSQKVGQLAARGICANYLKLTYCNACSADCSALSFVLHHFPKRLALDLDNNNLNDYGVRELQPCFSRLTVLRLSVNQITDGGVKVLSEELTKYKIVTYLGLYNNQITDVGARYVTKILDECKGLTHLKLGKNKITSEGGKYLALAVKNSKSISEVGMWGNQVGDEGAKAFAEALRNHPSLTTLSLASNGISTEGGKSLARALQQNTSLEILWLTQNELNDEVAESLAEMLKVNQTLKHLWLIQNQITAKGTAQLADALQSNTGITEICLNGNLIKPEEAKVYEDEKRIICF

[2] = molecular target: Nucleotide-binding oligomerization domain-containing protein 2 (Homo sapiens, UniProt Q9HC29); experiment: Antagonist activity at recombinant human NOD2 expressed in HEK293 cells assessed as inhibition of MDP-induced IL8 release measured after 24 hrs by HTRF assay; format: cell-based
Chain of Nucleotide-binding oligomerization domain-containing protein 2 (Q9HC29 whole entry, the tested form may be a part): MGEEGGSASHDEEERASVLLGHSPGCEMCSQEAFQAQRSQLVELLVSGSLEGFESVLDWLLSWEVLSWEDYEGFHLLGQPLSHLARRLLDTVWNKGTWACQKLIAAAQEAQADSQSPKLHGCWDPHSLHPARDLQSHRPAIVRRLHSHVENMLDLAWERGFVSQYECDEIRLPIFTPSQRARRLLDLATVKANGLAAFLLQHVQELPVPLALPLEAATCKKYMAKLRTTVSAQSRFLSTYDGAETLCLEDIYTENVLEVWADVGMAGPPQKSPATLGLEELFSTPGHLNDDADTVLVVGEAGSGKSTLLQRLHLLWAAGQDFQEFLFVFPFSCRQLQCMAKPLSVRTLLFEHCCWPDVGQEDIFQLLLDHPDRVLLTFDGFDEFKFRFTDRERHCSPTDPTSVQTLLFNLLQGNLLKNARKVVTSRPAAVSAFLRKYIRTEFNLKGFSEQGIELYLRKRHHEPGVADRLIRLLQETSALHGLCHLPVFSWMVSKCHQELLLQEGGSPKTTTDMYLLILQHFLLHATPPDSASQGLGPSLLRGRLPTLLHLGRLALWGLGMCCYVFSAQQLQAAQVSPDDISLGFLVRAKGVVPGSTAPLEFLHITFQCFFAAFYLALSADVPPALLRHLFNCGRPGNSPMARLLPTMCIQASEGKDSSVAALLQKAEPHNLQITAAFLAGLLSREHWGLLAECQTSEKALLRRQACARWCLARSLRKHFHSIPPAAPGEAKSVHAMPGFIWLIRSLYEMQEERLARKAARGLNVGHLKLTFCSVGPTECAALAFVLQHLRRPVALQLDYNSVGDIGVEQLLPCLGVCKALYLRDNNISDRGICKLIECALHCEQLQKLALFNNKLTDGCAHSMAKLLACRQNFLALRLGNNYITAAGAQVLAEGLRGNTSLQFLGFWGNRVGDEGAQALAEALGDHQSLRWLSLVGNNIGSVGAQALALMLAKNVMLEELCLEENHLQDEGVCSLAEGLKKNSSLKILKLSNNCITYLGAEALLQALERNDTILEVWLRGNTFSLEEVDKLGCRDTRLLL

O=C(Cn1c(CCNC(=O)c2ccccc2)nc2ccccc21)Nc1ccc2c(c1)CCC2
IC50 [1]: > 50 µM | IC50 [2]: 3.3 µM
